Experimental data from patent US7932262B2 (Novartis AG, priority 2006, dated 2011).
Where two headings read alike, the source gives them in different places.

Columns and labels:
PDK1 kinase = molecular target: T1, PDK1 kinase (Homo sapiens, UniProt O15530); assay: PDK1 Kinase Alpha Screen Assay; type: biochemical; details: read-out: PDK1 IC50
T1 sequence (O15530 1-556): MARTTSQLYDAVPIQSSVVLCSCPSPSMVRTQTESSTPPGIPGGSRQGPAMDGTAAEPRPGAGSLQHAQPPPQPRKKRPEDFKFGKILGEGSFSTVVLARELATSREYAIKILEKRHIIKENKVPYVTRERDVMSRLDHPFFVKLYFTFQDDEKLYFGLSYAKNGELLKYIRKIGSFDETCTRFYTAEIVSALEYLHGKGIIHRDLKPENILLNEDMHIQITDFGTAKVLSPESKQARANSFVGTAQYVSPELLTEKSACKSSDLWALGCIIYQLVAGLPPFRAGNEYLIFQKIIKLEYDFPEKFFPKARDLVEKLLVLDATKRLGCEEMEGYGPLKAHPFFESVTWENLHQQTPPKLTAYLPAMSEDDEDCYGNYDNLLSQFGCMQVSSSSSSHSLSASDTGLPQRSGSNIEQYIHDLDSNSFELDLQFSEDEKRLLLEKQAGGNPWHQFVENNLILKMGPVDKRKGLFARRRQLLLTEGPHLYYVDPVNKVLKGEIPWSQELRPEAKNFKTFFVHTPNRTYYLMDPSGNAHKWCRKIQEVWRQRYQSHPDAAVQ
Outline: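 Test compounds were incubated with PDK1 kinase, 10 uM ATP and 50 nM biotinylated peptide substrate for 3-18 hours at pH 7.5 with 2.5% DMSO. Peptide phosphorylation was then detected by AlphaScreen proximity luminescence using a phospho-(Ser/Thr) PKA substrate antibody.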

A2780 cells = assay: Cell Proliferation Assay (Cell Titer Glo), A2780; type: cell-based; details: Homo sapiens, read-out: CPEC50 A2780
Outline: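 Cells seeded at 1000/well, allowed to adhere 3-5 h, then exposed to DMSO-dissolved compounds for 3 days at 37° C., 5% CO2. Medium replaced before Cell Titer Glo addition; luminescence read after 10 min.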

[1] = 72 h, A2780 cells, 3 days incubation
[2] = Cell Proliferation Assay, A2780

| SMILES | IC50 (PDK1 kinase) | EC50 (A2780 cells; [1]) | IC50 (PDK1 kinase; PDK1 Kinase Alpha Screen Assay) | EC50 (A2780 cells; [2]) |
| --- | --- | --- | --- | --- |
| NS(=O)(=O)c1ccc(Nc2ncc3cccc(-c4ccnc(N5CCOCC5)c4)c3n2)cc1 [Compound 105, 4-[8-(2-Morpholin-4-yl-pyridin-4-yl)-quinazolin-2-ylamino]-benzenesulfonamide] | < 5 µM | 5 to 10 µM | – | – |
| CN1CCN(c2cc(-c3cccc4cnc(Nc5ccc(S(N)(=O)=O)cc5)nc34)ccn2)CC1 [Compound 106, 4-{8-[2-(4-Methyl-piperazin-1-yl)-pyridin-4-yl]-quinazolin-2-ylamino}-benzenesulfonamide] | < 5 µM | < 5 µM | – | – |
| NS(=O)(=O)c1ccc(Nc2ncc3cccc(-c4ccnc(N5CCS(=O)(=O)CC5)c4)c3n2)cc1 [Compound 107, 4-{8-[2-(1,1-Dioxo-1 lambda*6*-thiomorpholin-4-yl)-pyridin-4-yl]-quinazolin-2-ylamino}-benzenesulfonamide] | < 5 µM | < 5 µM | – | – |
| NS(=O)(=O)c1ccc(Nc2ncc3cccc(-c4ccnc(N5CCNC(=O)C5)c4)c3n2)cc1 [Compound 108, 4-{8-[2-(3-Oxo-piperazin-1-yl)-pyridin-4-yl]-quinazolin-2-ylamino}-benzenesulfonamide] | < 5 µM | < 5 µM | – | – |
| Nc1cc(-c2cccc3cnc(Nc4ccc(S(N)(=O)=O)cc4)nc23)ccn1 [Compound 109, 4-[8-(2-Amino-pyridin-4-yl)-quinazolin-2-ylamino]-benzenesulfonamide] | < 5 µM | 5 to 10 µM | – | – |
| NS(=O)(=O)c1ccc(Nc2ncc3cccc(-c4ccccc4)c3n2)cc1 [Compound 110, 4-(8-Phenyl-quinazolin-2-ylamino)-benzenesulfonamide] | < 5 µM | < 5 µM | – | – |
| NC(=O)c1ccc(-c2ccc3cnc(Nc4ccc(S(N)(=O)=O)cc4)nc3c2)cc1F [Compound 112, 2-Fluoro-4-[2-(4-sulfamoyl-phenylamino)-quinazolin-7-yl]-benzamide] | < 5 µM | 5 to 10 µM | – | – |
| NS(=O)(=O)c1ccc(Nc2ncc3cccc(C(=O)N4CCCC4)c3n2)cc1 [Compound 113, 4-[8-(Pyrrolidine-1-carbonyl)-quinazolin-2 ylamino]-benzenesulfonamide] | < 5 µM | 5 to 10 µM | – | – |
| COCCNC(=O)c1cccc2cnc(Nc3ccc(S(N)(=O)=O)cc3)nc12 [Compound 114, 2-(4-Sulfamoyl-phenylamino)-quinazoline-8-carboxylic acid (2-methoxy-ethyl)-amide] | 5 to 10 µM | < 5 µM | – | – |
| NS(=O)(=O)c1ccc(Nc2ncc3cccc(C(=O)NCCN4CCCC4)c3n2)cc1 [Compound 115, 2-(4-Sulfamoyl-phenylamino)-quinazoline-8-carboxylic acid (2-pyrrolidin-1-yl-ethyl)-amide] | 5 to 10 µM | < 5 µM | – | – |
| COCCN1CCN(C(=O)c2ccc3cnc(Nc4ccc(S(N)(=O)=O)cc4)nc3c2)CC1 [Compound 116, 4-{7-[4-(2-Methoxy-ethyl)-piperazine-1-carbonyl]-quinazolin-2-ylamino}-benzenesulfonamide] | 10 to 25 µM | 5 to 10 µM | – | – |
| COc1cc(-c2cccc3cnc(Nc4ccc(S(N)(=O)=O)cc4)nc23)c(Cl)cn1 [Compound 117, 4-[8-(5-Chloro-2-methoxy-pyridin-4-yl)-quinazolin-2-ylamino]-benzenesulfonamide] | < 5 µM | < 5 µM | – | – |
| CC(C)N1CCN(C(=O)c2ccc3cnc(Nc4ccc(S(N)(=O)=O)cc4)nc3c2)CC1 [Compound 118, 4-[7-(4-Isopropyl-piperazine-1-carbonyl)-quinazolin-2-ylamino]-benzenesulfonamide] | 10 to 25 µM | 5 to 10 µM | – | – |
| CN1CCC(NC(=O)c2ccc3cnc(Nc4ccc(S(N)(=O)=O)cc4)nc3c2)CC1 [Compound 119, 2-(4-Sulfamoyl-phenylamino)-quinazoline-7-carboxylic acid (1-methyl-piperidin-4-yl)-amide] | < 5 µM | 5 to 10 µM | – | – |
| NS(=O)(=O)c1ccc(Nc2ncc3cccc(C(=O)N4CCOCC4)c3n2)cc1 [Compound 120, 4-[8-(Morpholine-4-carbonyl)-quinazolin-2-ylamino]-benzenesulfonamide] | 5 to 10 µM | 5 to 10 µM | – | – |
| CN1CCN(C(=O)c2cccc3cnc(Nc4ccc(S(N)(=O)=O)cc4)nc23)CC1 [Compound 121, 4-[8-(4-Methyl-piperazine-1-carbonyl)-quinazolin-2-ylamino]-benzenesulfonamide] | < 5 µM | 5 to 10 µM | – | – |

| SMILES | IC50 (PDK1 kinase) | EC50 (A2780 cells; [1]) | IC50 (PDK1 kinase; PDK1 Kinase Alpha Screen Assay) | EC50 (A2780 cells; [2]) |
| --- | --- | --- | --- | --- |
| NS(=O)(=O)c1ccc(Nc2ncc3cccc(C(=O)N4CCS(=O)(=O)CC4)c3n2)cc1 [Compound 122, 4-[8-(1,1-Dioxo-1lambda*6*- thiomorpholine-4-carbonyl)-quinazolin-2-ylamino]-benzenesulfonamide] | 10 to 25 µM | 5 to 10 µM | – | – |
| NC(=O)c1cccc(-c2ccc3cnc(Nc4ccc(S(N)(=O)=O)cc4)nc3c2)c1 [Compound 123, 3-[2-(4-Sulfamoyl-phenylamino)-quinazolin-7-yl]-benzamide] | < 5 µM | 5 to 10 µM | – | – |
| NC(=O)c1ccc(-c2ccc3cnc(Nc4ccc(S(N)(=O)=O)cc4)nc3c2)cc1 [Compound 124, 4-[2-(4-Sulfamoyl-phenylamino)-quinazolin-7-yl]-benzamide] | < 5 µM | 5 to 10 µM | – | – |
| Nc1ccc(-c2ccc3cnc(Nc4ccc(S(N)(=O)=O)cc4)nc3c2)cn1 [Compound 130, 4-[7-(6-Amino-pyridin-3-yl)-quinazolin-2-ylamino]-benzenesulfonamide] | < 5 µM | < 5 µM | – | – |
| NC(=O)c1ccc(-c2ccc3cnc(Nc4ccc(S(N)(=O)=O)cc4)nc3c2)cn1 [Compound 131, 5-[2-(4-Sulfamoyl-phenylamino)-quinazolin-7-yl]-pyridine-2-carboxylic acid amide] | < 5 µM | 5 to 10 µM | – | – |
| NS(=O)(=O)c1ccc(Nc2ncc3ccc(-c4cn[nH]c4)cc3n2)cc1 [Compound 132, 4-[7-(1H-Pyrazol-4-yl)-quinazolin-2-ylamino]-benzenesulfonamide] | < 5 µM | < 5 µM | – | – |
| CN1CCN(C(=O)c2ccc3cnc(Nc4ccc(S(N)(=O)=O)cc4)nc3c2)CC1 [Compound 135, 4-[7-(4-Methyl-piperazine-1-carbonyl)-quinazolin-2-ylamino]-benzenesulfonamide] | 10 to 25 µM | 5 to 10 µM | – | – |
| NS(=O)(=O)c1ccc(Nc2ncc3ccc(-c4ccc(C(=O)N5CCOCC5)cc4)cc3n2)cc1 [Compound 139, 4-{7-[4-(Morpholine-4-carbonyl)-phenyl]-quinazolin-2-ylamino}-benzenesulfonamide] | < 5 µM | 5 to 10 µM | – | – |
| NS(=O)(=O)c1ccc(Nc2ncc3cccc(C(=O)NC4CCCNC4)c3n2)cc1 (stereo not shown) [Compound 140, 2-(4-Sulfamoyl-phenylamino)-quinazoline-8-carboxylic acid piperidin-3-ylamide] | < 5 µM | 5 to 10 µM | – | – |
| CN(C)[C@@H]1CCN(C(=O)c2cccc3cnc(Nc4ccc(S(N)(=O)=O)cc4)nc23)C1 [Compound 141, 4-[8-((R)-3-Dimethylamino-pyrrolidine-1-carbonyl)-quinazolin-2-ylamino]-benzenesulfonamide] | < 5 µM | 5 to 10 µM | – | – |
| NS(=O)(=O)c1ccc(Nc2ncc3cccc(C(=O)NC4CCNCC4)c3n2)cc1 [Compound 142, 2-(4-Sulfamoyl-phenylamino)-quinazoline-8-carboxylic acid piperidin-4-ylamide] | < 5 µM | 5 to 10 µM | – | – |
| CN(C)[C@H]1CCN(C(=O)c2cccc3cnc(Nc4ccc(S(N)(=O)=O)cc4)nc23)C1 [Compound 143, 4-[8-((S)-3-Dimethylamino-pyrrolidine-1-carbonyl)-quinazolin-2-ylamino]-benzenesulfonamide] | < 5 µM | 5 to 10 µM | – | – |
| NS(=O)(=O)c1ccc(Nc2ncc3cccc(C(=O)N[C@H]4CN5CCC4CC5)c3n2)cc1 [Compound 144, 2-(4-Sulfamoyl-phenylamino)-quinazoline-8-carboxylic acid (R)-3-quinuclidinylamide] | 5 to 10 µM | 5 to 10 µM | – | – |
| CC(C)COc1cccc2cnc(Nc3ccc(S(N)(=O)=O)cc3)nc12 [Compound 310, 4-(8-isobutoxyquinazolin-2-ylamino)benzenesulfonamide] | – | – | < 5 µM | < 5 µM |
| CC(=O)Nc1ccc(Nc2ncc3cccc(OC(C)C)c3n2)cc1 [Compound 311, N-(4-(8-isopropoxyquinazolin-2-ylamino)phenyl)acetamide] | – | – | < 5 µM | 5 to 10 µM |
| CC(=O)NS(=O)(=O)c1ccc(Nc2ncc3cccc(OC(C)C)c3n2)cc1 [Compound 312, N-(4-(8-isopropoxyquinazolin-2-ylamino)phenylsulfonyl)acetamide] | – | – | < 5 µM | 5 to 10 µM |
